Here are results for four molecules from article PMC4585029, “Agonist and antagonist effects of tobacco-related nitrosamines on human α4β2 nicotinic acetylcholine receptors” (Frontiers in Pharmacology, 2015).

As a reminder, the inhibition is the change of the read-out against control, counted positive when it falls. What is called IC50 is the concentration that inhibits the measured activity by half.

The test system of one series is (α7)5 nAChR. Details: method as in Dani and Bertrand, [2007]. The conditions noted are these: homopentameric receptors such as (α7)5; ref Dani and Bertrand, [2007]; cited from earlier work.
A further series has as its target T1, human α4β2 nAChRs (Homo sapiens, UniProt P17787+P43681).
T1 construct: expressed in transfected cells
As to the kind of experiment: cell-based. The series is classed as cell-based. The conditions noted are these: for voltage dependence of the fractional block at the steady state: NNN 10 μM with 10 μM nicotine, NNK 1 μM with 100 nM nicotine, different Vm; for Imax/Inico: maximal current relative to nicotine, whole-cell; for functional behaviour on α4β2 nAChRs: patch-clamp. Here is the method:
HEK 293 cells stably expressing human α4β2 nAChRs were cultured by standard methods (Di Resta et al., [2010]). In brief, cultures were maintained in Dulbecco's modified Eagle's medium (Hyclone Laboratories), supplemented with 10% fetal calf serum (Hyclone), 4.5 g/l glutamine, […] hygromycin β, and 0.25 μg/ml amphoterycin B. Cells were grown at 37°C and 5% CO2. For patch-clamp experiments, cells were harvested by treatment with trypsin and plated onto 35 mm Petri dishes (Corning Inc.).
Cells were voltage-clamped by using the whole-cell configuration of the patch-clamp method. Currents were registered with an Axopatch 200B amplifier (Molecular Devices), at room temperature (20–22°C). Micropipettes (3–4 MΩ) were pulled from borosilicate capillaries (GMBH) with a P-97 Flaming/Brown Micropipette Puller (Sutter Instrument Co.). The cell capacitance and series resistance (up to about 75%) were always compensated. Currents were low-pass filtered at 2 kHz and acquired on-line at 5–10 kHz with Molecular Devices hardware and software (pClamp 8 and Axoscope 8). After patch rupture, we usually allowed 1–2 min for pipette solution exchange and signal stabilization, before applying our stimuli. Extracellular solutions were applied with an RSC-160 Rapid Solution Changer (BioLogic Science Instruments). The solution is delivered to the cells through borosilicate capillaries connected to Tygon tubes. Seven independent lines are available. […] The perfusing line was totally substituted whenever the drug was changed.
Unless otherwise indicated, chemicals, and drugs were purchased by Sigma-Aldrich Italia Srl. The extracellular solution contained (mM): NaCl 130, KCl 5, CaCl2 2, MgCl2 2, HEPES 10, D-glucose 5 (pH 7.4; adjusted with NaOH). Pipettes contained (mM): K-aspartate 120, NaCl 10, MgCl2 2, CaCl21.3, EGTA-KOH 10, HEPES 10, MgATP 1, (pH 7.3; adjusted with KOH). […] NNK and NNN (20 mM) were dissolved in water and kept refrigerated for no longer than 1 week. […] The final concentrations were obtained by serial dilution.
Data were analyzed with Clampfit 9.2 (Molecular Devices) and OriginPro 9 (OriginLab Co.). Theoretical curves best fitting the data were determined by a nonlinear least-squares method (Levenberg-Marquardt algorithm). For nAChR activation we used both a simple Hill function and the sum of two Hill expressions (Covernton and Connolly, [2000]). The single-term expression was:
The two-terms Hill expression was:
(2) IL/Imax=A/(1+EC50high/[L])^nH1+1-A/(1+EC50low/[L])^nH2
where A is the fraction of receptors in the high-affinity state; EC50high and EC50low are the EC50 values of the components at high and low affinity, respectively; nH1 and nH2 are the corresponding Hill coefficients, and the other symbols are as in Equation (1).
The function used to fit the desensitization data points (Figure 3) was:
(3) ISS/Ipeak=B+1-B/(1+[L]/IC50)^nH
ISS was found by fitting the current decay with a single exponential function and taking the steady state value of this function. A similar function was used to fit the fractional inhibition in Figures 4B, 5B.
(4) y=αNic[Nic]/EC50+αNNK[NNK]/EC50(NNK)/1+[Nic]/EC50+[NNK]/EC50(NNK)
In general terms: Patch clamp records ionic current or voltage across a cell membrane.

The conditions of series [1]: cited from earlier work.
In series [2] the test system is epibatidine-sensitive nAChRs. Further details: method as in Schuller, [2007]. The conditions noted are these: SCLC cells, ref Schuller, [2007], read-out: EC50 measured in binding studies; cited from earlier work.
Another series relates to muscle subtype nAChR. Details: method as in Nunes-Alves et al., [2012]. The conditions noted are these: ref Nunes-Alves et al., [2012]; cited from earlier work.
The next series concerns α3β4 nAChR. Further details: method as in Nunes-Alves et al., [2012]. The conditions noted are these: in the presence of 100 μM nicotine; ref Nunes-Alves et al., [2012]; cited from earlier work.
Where [3] appears, read: two-terms Hill fit (Equation 2).

The structures appear in SMILES notation. “Also recorded” adds a separate entry of the source. Where two headings read alike, the source gives them in different places. Where only a bound is given, the exact number is not on record here.

T1 sequence (P43681 29-627 limits assumed): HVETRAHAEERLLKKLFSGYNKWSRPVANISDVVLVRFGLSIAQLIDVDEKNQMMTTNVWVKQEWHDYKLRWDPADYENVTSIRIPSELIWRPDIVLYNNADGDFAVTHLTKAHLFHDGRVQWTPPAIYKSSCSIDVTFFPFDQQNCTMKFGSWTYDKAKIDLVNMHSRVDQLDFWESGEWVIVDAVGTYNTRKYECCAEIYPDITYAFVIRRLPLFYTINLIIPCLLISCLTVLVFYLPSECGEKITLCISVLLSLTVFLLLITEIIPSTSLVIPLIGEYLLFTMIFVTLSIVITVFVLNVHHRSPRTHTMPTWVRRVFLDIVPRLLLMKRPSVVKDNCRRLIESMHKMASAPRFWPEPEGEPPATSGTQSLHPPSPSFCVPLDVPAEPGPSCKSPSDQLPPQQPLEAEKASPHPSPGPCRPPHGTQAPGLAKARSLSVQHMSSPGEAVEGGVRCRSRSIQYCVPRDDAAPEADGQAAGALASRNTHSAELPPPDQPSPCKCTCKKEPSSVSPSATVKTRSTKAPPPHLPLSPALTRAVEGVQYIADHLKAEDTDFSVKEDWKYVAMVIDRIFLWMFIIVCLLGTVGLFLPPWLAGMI
T1 sequence (P17787 26-502): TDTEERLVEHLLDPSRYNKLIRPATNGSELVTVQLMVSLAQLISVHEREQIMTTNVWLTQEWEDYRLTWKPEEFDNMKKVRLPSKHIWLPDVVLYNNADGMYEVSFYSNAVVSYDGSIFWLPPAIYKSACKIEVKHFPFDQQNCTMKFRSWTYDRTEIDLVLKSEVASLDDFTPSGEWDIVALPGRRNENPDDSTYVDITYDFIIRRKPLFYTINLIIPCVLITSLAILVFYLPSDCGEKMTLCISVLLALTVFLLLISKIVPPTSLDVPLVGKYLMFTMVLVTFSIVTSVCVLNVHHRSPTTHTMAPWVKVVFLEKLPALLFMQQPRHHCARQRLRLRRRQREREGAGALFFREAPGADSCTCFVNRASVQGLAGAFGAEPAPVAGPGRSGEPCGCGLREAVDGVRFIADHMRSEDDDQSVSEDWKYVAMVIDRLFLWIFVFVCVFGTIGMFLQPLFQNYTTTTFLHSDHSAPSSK

`CN1CCC[C@H]1c1cccnc1` [Nicotine, nicotine, reference compound]: in the series on (α7)5 nAChR, the EC50 was […]. On human α4β2 nAChRs, the average current is 89.4 ± 19.4 pA, the “nH of nicotine alone (Figure 4C)” value was 0.83, the “nH of nicotine in the presence of 1 nM NNN” value is on record as 0.92 and the “nH of nicotine in the presence of 1 μM NNN” value is on record as […]. Further, the peak current at human α4β2 nAChRs is 119 ± 24 pA. The “plasma nicotine concentration immediately after smoking” value in series [1] (smokers, ref Schaal and Chellappan, [2014]) was […].
Regarding `CC(=O)OCC[N+](C)(C)C` [ACh], in the series with (α7)5 nAChR, the EC50 was […].
Consider `CN(CCCC(=O)c1cccnc1)N=O` [NNK, 4-(methylnitrosamine)-1-(3-pyridyl)-1-butanone], for which the peak current at human α4β2 nAChRs (10 nM nicotine plus 1 μM NNK, n = 11) was 160 ± 30 pA. Further, on human α4β2 nAChRs (100 nM nicotine plus 100 μM NNK, n = 8), the average current was determined as 159.1 ± 25.1 pA. Also, the “potentiation of the current activated by nicotine” value at human α4β2 nAChRs (1 μM NNK on 0.01 μM nicotine) was 26%; at human α4β2 nAChRs (100 μM NNK on 100 nM (0.1 μM) nicotine, −80 mV) it was “approximately 80%”. On human α4β2 nAChRs (1 μM NNK, estimated by fit with Equation 4), the “concentration of nicotine at which NNK reversed its effect” value is listed as “around 20 nM”. The “average peak current density” value at human α4β2 nAChRs (10 μM NNK alone, −80 mV, n = 9) is listed as 5.75 ± 1.22 pA/pF. The “concentration of nicotine at which sign reversal of NNK effect occurs” value at human α4β2 nAChRs (100 μM NNK) was “approximately 400 nM”. Moreover, the “measured peak current relative to the value in the presence of 300 μM nicotine” value at human α4β2 nAChRs (100 μM NNK, −80 mV, n = 13) came to 0.14 ± 0.02. Further, the “nH of desensitization curve” value at human α4β2 nAChRs (Equation 3) is listed as 0.9. Moreover, the inhibition at 100 µM on human α4β2 nAChRs (HEK293, read-out: inhibition of the current elicited by nicotine) was 40%. The “nicotine concentrations whose currents are potentiated by co-applied NNK” value on human α4β2 nAChRs (NNK co-applied with nicotine) is at most 100 nM. For the same molecule, the “effect on the currents activated by 10 μM nicotine” value on human α4β2 nAChRs (NNK concentrations up to 100 nM) is “no effect”. For the same molecule, the “voltage dependence of the fractional block at the steady state” value on human α4β2 nAChRs is recorded as “independent of the applied Vm”. At human α4β2 nAChRs (activation by agonist alone, −80 mV), the “nH, Hill coefficient of single-term Hill fit (Equation 1)” value is recorded as 0.44. In addition, at human α4β2 nAChRs (currents activated by 10 μM nicotine, Equation 3), the “nH of inhibition curve” value was found to be 0.95. Further, at human α4β2 nAChRs (fit of data with 1 μM NNK plus nicotine (Figure 5C)), the “fit parameters αNIC / αNNK of Equation 4” value was determined as 5 µM. In addition, the “estimated maximal current activated by NNK, % of the current elicited by 300 μM nicotine” value at human α4β2 nAChRs (from Equation 1 fit, −80 mV) was “approximately 16%”. The Imax/Inico on human α4β2 nAChRs (−80 mV) came to 0.16. Also, on human α4β2 nAChRs, the “functional behaviour on α4β2 nAChRs” value is “partial agonist”. Further, the IC50 at human α4β2 nAChRs (read-out: Desensitization IC50, fractional steady state current ISS/Ipeak vs agonist concentration, Equation 3) was 1.7 µM; on human α4β2 nAChRs (read-out: Inhibition IC50, with 10 μM nicotine, steady state fractional current, −80 mV), over 100 µM. Moreover, the EC50 at human α4β2 nAChRs (read-out: EC50 (single-term Hill, Equation 1), peak whole-cell currents at −80 mV, activation by agonist alone) is 16.7 µM; on human α4β2 nAChRs (read-out: EC50high, high-affinity component, two-terms Hill fit (Equation 2)), 0.035 µM; at human α4β2 nAChRs (read-out: EC50low, low-affinity component, two-terms Hill fit (Equation 2)), 12.8 µM; in series [2], about 17 µM. In addition, on human α4β2 nAChRs (setting [3]), the “Hill coefficient of the high-affinity component (nH1 in Table 1)” value came out at 1.2. For the same molecule, on human α4β2 nAChRs (setting [3]), the “Hill coefficient of the low-affinity component (nH2 in Table 1)” value stood at 1.4. Also, at human α4β2 nAChRs (−80 mV, NNK alone), the “NNK concentrations that elicited inward currents” value is “higher than 10 nM”.
On to `O=NN1CCC[C@H]1c1cccnc1` [NNN, N'-nitrosonornicotine], for which, in the series on muscle subtype nAChR, the “effect on the muscle subtype” value was “little effect”. At human α4β2 nAChRs, the “voltage dependence of the fractional block at the steady state” value is recorded as “independent of the applied Vm”. The molecule further showed an Imax/Inico on human α4β2 nAChRs (−80 mV) of 0. Further, the “functional behaviour on α4β2 nAChRs” value at human α4β2 nAChRs is “pure inhibitor”. Besides, the IC50 at human α4β2 nAChRs (read-out: Inhibition IC50) is about 0.001 µM; on human α4β2 nAChRs (with 10 μM nicotine, steady state fractional current, −80 mV, read-out: Inhibition IC50), 0.00021 µM; with α3β4 nAChR, 1140 µM. Moreover, the “nAChR activation (whole-cell current) by the compound alone” value at human α4β2 nAChRs (−80 mV, NNN 10 μM and up to 100 μM) is “never produced nAChR activation; also recorded: did not elicit any whole-cell current”. The “concentrations normally encountered in smokers' plasma” value in series [1] (ref Schuller, [2007]) is under 0.1 nM.
